Assay results reported in patent US20080033005A1, “METHODS FOR THE TREATMENT OF MULTIPLE SCLEROSIS” (AVENTIS PHARMACEUTICALS INC., priority 2004, published 2008).

Assays:
[1] = test system: Primary rat oligodendrocyte progenitor cells; assay: Oligodendrocyte toxicity assay, progenitor cells (OLP), SIN-1, LDH release; format: cell-based; conditions: compound 10 nm, 1 hour pretreatment; Sin-1 10 mM; LDH after 24 hours; oligodendrocyte progenitors
Description: (§1) Primary rat oligodendrocyte progenitor cells were obtained from the cerebra of 2-3 day old postnatal rats (Sprague Dawley). The meninges were removed and tissue was mechanically dissociated. Cells were plated on T75 flasks and fed with DMEM+10% FBS.
(§2) Enriched OLPs were collected by mechanical separation from the astrocytic monolayer and were expanded in serum free media (SFM) supplemented with the mitogens, PDGF-AA (10 ng/ml) and FGF-2 (10 ng/ml).
(§3) Cells were plated in 96-well plates, 10,000 per well. Medium was changed to fresh medium and cells were pretreated with compounds for 1 hour. Toxins were added to give the following final concentrations: • Sin-1 10 mM • Pyrogallol 500 μM • C2 ceramide 100 μM • Camptothecin 10 μM
(§4) After 24 hours, medium was removed and assayed for LDH activity using the Promega cytotox 96 kit (catalog# G1780). Results were calculated as percent protection against toxin-induced toxicity.

mature oligodendrocytes = assay: Oligodendrocyte toxicity assay, mature oligodendrocytes (OL), SIN-1, LDH release; format: cell-based, rat; conditions: compound 10 nm, 1 hour pretreatment, Sin-1 10 mM, LDH after 24 hours
Description: as §1, §2
To generate mature oligodendrocytes, progenitor cells were switched to SFM supplemented with IGF-1 (10 ng/ml) 24 hours after plating and cells were grown under these conditions for 7 days prior to experimental assays.
as §3, §4

SK-N-SH cells = conditions: U-0126 given with the tested compounds
Description: Cells from a human neuroblastoma cell line, SK-N-SH cells, were plated at 50,000 cells/well in Costar Biocoat 96-well poly-D-lysine coated plates in EMEM (Minimum Essential Medium Eagle with Earle's salts) containing penicillin/streptomycin, L-glutamine, sodium pyruvate, non-essential amino acids and sodium bicarbonate. Cells were grown overnight in a 37° C. incubator under 5% CO2. The next day, the medium was removed and replaced with fresh medium. Cells were pretreated with Serms for 1 hour, and SIN-1 (3-morpholinosydnonimine, which produces peroxynitrite) was added to give a final concentration of 2 or 10 mM. After 24 hours, the medium was removed and assayed for LDH activity using the Promega cytotox 96 kit (catalog# G1780). Results were calculated as percent protection against SIN-1 toxicity.

`COc1ccc(-c2sc3cc(O)ccc3c2Oc2ccc(OCCN3CCCCC3)cc2)cc1` [Arzoxifen] was tested, and the “% Protection (SIN-1*) OLP 10 nm” value [1] was 1.485% and the “% Protection (SIN-1*) OL 10 nm” value (mature oligodendrocytes) was 8.237%.
With `N#CC(=C(/N)Sc1ccccc1N)/C(C#N)=C(\N)Sc1ccccc1N` [U-0126] the “effect of MEK inhibitor on the neuroprotection by the compounds” value (SK-N-SH cells) was “inhibition of the neuroprotection”.
